Values after ≈ are worked out from the molar mass of the structure shown.

The target in series [1] is Sphingosine 1-phosphate receptor 5 (Homo sapiens, UniProt Q9H228). As to the kind of experiment: Agonist activity at human S1P5 receptor expressed in CHO cells assessed as increase in calcium flux by aequorin-derived luminescence assay. The series is classed as functional, cell-based. Background: Calcium assays in cells follow changes in intracellular calcium, usually with a dye or a luminescent sensor.

The target of series [2] is Sphingosine 1-phosphate receptor 1 (Homo sapiens, UniProt P21453). As to the kind of experiment: Agonist activity at human S1P1 receptor expressed in CHO cells assessed as increase in calcium flux by aequorin-derived luminescence assay. Format: functional, cell-based.
The target in series [3] is Sphingosine 1-phosphate receptor 3 (Homo sapiens, UniProt Q99500). As to the kind of experiment: Agonist activity at human S1P3 receptor expressed in CHO cells assessed as increase in calcium flux by aequorin-derived luminescence assay. The series is classed as functional, cell-based.
Series [4] is filed under the species Homo sapiens. In words: Selectivity ratio of EC50 for human S1P5 receptor expressed in CHO cells to EC50 for human S1P3 receptor expressed in CHO cells. Format: cell-based.
A short description of series [5]: Intrinsic clearance in human microsomes assessed per mg protein. Format: ADME, Microsome.
Series [6] can be described thus: Aqueous kinetic solubility of the compound by turbidimetric method. Format: physicochemical. To be noted: buffer; read-out: Kinetic_solubility.
The nature of series [7]: Half life in human microsomes assessed per mg protein. Format: ADME, Microsome.
Series [8] is filed under the species Homo sapiens. In words: Selectivity ratio of EC50 for human S1P5 receptor expressed in CHO cells to EC50 for human S1P1 receptor expressed in CHO cells. Format: cell-based.
The nature of series [9]: Ratio of drug uptake in CNS to plasma in po dosed rat. The series is classed as ADME, organism-based. As to conditions: CNS and plasma.
A short description of series [10]: Oral bioavailability in rat. To be noted: in vivo. Format: ADME, organism-based.

Sequence of Sphingosine 1-phosphate receptor 1 (P21453 whole entry): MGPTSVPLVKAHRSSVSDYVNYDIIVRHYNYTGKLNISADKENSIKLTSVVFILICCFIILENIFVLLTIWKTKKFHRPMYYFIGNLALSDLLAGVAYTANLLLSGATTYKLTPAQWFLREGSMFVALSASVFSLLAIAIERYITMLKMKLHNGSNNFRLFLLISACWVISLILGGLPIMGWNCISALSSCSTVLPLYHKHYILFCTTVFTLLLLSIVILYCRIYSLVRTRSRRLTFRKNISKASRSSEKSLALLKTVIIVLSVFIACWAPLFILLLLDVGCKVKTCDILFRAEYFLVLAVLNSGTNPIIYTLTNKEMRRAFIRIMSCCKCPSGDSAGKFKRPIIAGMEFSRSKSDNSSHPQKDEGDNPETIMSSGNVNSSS
Sequence of Sphingosine 1-phosphate receptor 3 (Q99500 whole entry): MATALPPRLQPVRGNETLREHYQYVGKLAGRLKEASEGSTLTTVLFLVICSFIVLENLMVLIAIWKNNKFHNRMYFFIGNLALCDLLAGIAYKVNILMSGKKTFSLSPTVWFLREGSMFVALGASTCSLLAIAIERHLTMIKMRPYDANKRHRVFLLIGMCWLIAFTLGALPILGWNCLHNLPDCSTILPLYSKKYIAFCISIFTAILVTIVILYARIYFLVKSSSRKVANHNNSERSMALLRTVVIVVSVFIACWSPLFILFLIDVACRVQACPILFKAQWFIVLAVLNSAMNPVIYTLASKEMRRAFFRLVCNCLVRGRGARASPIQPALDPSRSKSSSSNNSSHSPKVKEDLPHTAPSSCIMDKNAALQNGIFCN
Sequence of Sphingosine 1-phosphate receptor 5 (Q9H228 whole entry): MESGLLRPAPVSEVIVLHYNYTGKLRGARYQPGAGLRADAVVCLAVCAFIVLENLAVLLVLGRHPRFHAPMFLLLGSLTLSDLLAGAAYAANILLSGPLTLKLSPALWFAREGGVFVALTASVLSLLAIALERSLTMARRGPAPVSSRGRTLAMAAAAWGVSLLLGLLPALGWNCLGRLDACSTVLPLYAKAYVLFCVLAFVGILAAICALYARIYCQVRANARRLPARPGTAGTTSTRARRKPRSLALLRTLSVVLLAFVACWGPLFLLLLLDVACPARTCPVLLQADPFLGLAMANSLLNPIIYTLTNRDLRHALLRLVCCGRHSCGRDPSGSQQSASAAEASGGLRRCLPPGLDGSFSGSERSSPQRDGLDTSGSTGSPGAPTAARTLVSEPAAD

As a reminder, the EC50 is the midpoint of the concentration-response curve. For the molecule `O=C(O)CCN1CCC2(CC1)COc1cc(OCc3cccc(Cl)c3Cl)ccc12`, the EC50 in series [1] is 0.2 µM; in [2], 1.58 µM; in [3], over 10 µM.
A word on the microsomal CLint: it is the capacity of the preparation to metabolise the compound, expressed as a volume cleared per time. Higher therefore signals faster metabolism. The term half-life denotes how long it takes for the measured level to halve. Read a high half-life as slow decline. Consider `Cl.O=C(O)CCN1CCC2(CC1)COc1c2ccc(OCc2c(Cl)cccc2Cl)c1F`, for which the Ratio EC50 in the series listed under Homo sapiens [4] was 1000. This molecule also displayed an intrinsic clearance (microsomal CLint) in series [5] of 6.5 µL/min/mg. Further, in [6], the solubility kinetic fell in the range of 30 to 100 µM. In addition, the EC50 in [1] is 0.00631 µM; in series [2], 1 µM; in series [3], over 10 µM. In series [7], this molecule returned a half-life of 3.55 h.
On to `CCc1cccc(Cl)c1COc1ccc2c(c1)OCC21CCN(CCC(=O)O)CC1`, for which the Ratio EC50 in the series filed under Homo sapiens [4] is 100. In addition, the figures for the EC50 in [1] and in series [3] were 0.0158 µM and over 10 µM, respectively.
On to `O=C(O)CCN1CCC2(CC1)COc1cc(OCCCc3ccccc3)ccc12`, for which the concentration giving a half-maximal response (EC50) in series [1] is 2 µM; in series [2], 5.01 µM; in [3], 1.58 µM.
Turning to `Cl.O=C(O)CCN1CCC2(CC1)COc1cc(OCc3c(F)cccc3Cl)ccc12`, the Ratio EC50 in the series listed under Homo sapiens [4] was determined as 100. In [5], this molecule gave a microsomal CLint of 2.7 µL/min/mg. Besides, the solubility kinetic in series [6] was in the range of 30 to 100 µM. For the same molecule, the values for the EC50 in series [1] and in series [2] were 0.0631 µM and 6.31 µM, respectively. Besides, the half-life in [7] was 8.42 h.
`CC(CN1CCC2(CC1)COc1cc(OCc3c(Cl)cccc3Cl)ccc12)C(=O)O` (stereo unspecified): the EC50 in [1] was 0.0631 µM; in series [2], 1.26 µM.
With `CCCc1cccc(Cl)c1COc1ccc2c(c1)OCC21CCN(CCC(=O)O)CC1`, the Ratio EC50 in the series listed under Homo sapiens [4] came to 100. The EC50 in series [1] is 0.0158 µM; in series [2], 2 µM; in [3], 2 µM.
On to `CCc1cccc(CC)c1COc1ccc2c(c1)OCC21CCN(CCC(=O)O)CC1`, for which the intrinsic clearance (microsomal CLint) in series [5] is 0.92 µL/min/mg. The solubility kinetic in series [6] is at least 100 µM. Moreover, the 50% effective concentration (EC50) in series [1] was 0.02 µM; in [2] it was 1.58 µM; in series [3] it was 1.58 µM. The same molecule returned a half-life in [7] of 25.2 h.
`Cl.O=C(O)CCN1CCC2(CC1)COc1cc(OCc3cc(Cl)nc(Cl)c3)ccc12` had an intrinsic clearance (microsomal CLint) in series [5] of 13.9 µL/min/mg. For the same molecule, the solubility kinetic in series [6] is over 100 µM. Besides, the half-maximal effective concentration (EC50) was 0.316 µM in series [1], over 31.6 µM in series [2] and over 10 µM in series [3]. The half-life in series [7] was 1.67 h.
In the case of `O=C(O)CCN1CCC2(CC1)COc1cc(C#Cc3ccccc3Cl)ccc12`, the Ratio EC50 was determined as 1000 in the series listed under Homo sapiens [8] and 100 in the series listed under Homo sapiens [4]. Moreover, the EC50 in [1] was 0.0251 µM; in [2], over 31.6 µM; in series [3], over 10 µM.
Regarding `CCc1cccc(Cl)c1COc1ccc2c(c1)OCC21CCCN(CCC(=O)O)C1.Cl` (stereo unspecified), the Ratio EC50 in the series listed under Homo sapiens [8] worked out at 1000; in the series filed under Homo sapiens [4] it was 100. Further, the microsomal CLint in series [5] is 3.4 µL/min/mg. Moreover, the solubility kinetic in series [6] was at least 100 µM. The concentration giving a half-maximal response (EC50) in [1] is 0.0316 µM; in series [2], over 31.6 µM; in series [3], over 10 µM. Further, the half-life in [7] came out at 6.82 h.
`Cl.O=C(O)CCN1CCC2(CC1)COc1cc(SCc3c(Cl)cccc3Cl)ccc12`: the figures for the Ratio EC50 in the series filed under Homo sapiens [8] and in the series filed under Homo sapiens [4] were 1000 and 100, respectively. In addition, the intrinsic metabolic clearance (microsomal CLint) in series [5] turned out to be 21 µL/min/mg. The solubility kinetic in series [6] was at least 100 µM. Besides, the 50% effective concentration (EC50) is 0.0126 µM in series [1], over 10 µM in [2] and 3.98 µM in series [3]. In series [7], this molecule returned a half-life of 1.08 h.
As for `O=C(O)CCN1CCC2(CC1)COc1cc(OCc3cc(Cl)ccc3Cl)ccc12`, the half-maximal effective concentration (EC50) was 0.2 µM in [1], 12.6 µM in series [2] and 1 µM in [3].
As to `O=C(O)CN1CCC2(CC1)COc1cc(OCc3c(Cl)cccc3Cl)ccc12`, in the series listed under Homo sapiens [4], the Ratio EC50 came out at 100. Also, the figures for the 50% effective concentration (EC50) in [1], in series [2] and in series [3] were 0.0316 µM, 6.31 µM and over 1 µM, respectively.
Turning to `O=C(O)CCN1CCC2(CC1)COc1cc(OCc3cccc(Cl)c3)ccc12`, the concentration giving a half-maximal response (EC50) in series [1] was 0.316 µM; in series [2], over 10 µM; in [3], over 10 µM.
Consider `CC(C)c1cccc(Cl)c1COc1ccc2c(c1)OCC21CCN(CCC(=O)O)CC1.Cl`, for which, in the series filed under Homo sapiens [4], the Ratio EC50 was determined as 100. Further, the microsomal CLint in series [5] is 2.1 µL/min/mg. In addition, the solubility kinetic in series [6] fell in the range of 30 to 100 µM. Moreover, the EC50 in series [1] was 0.0251 µM; in series [2], 1.26 µM; in series [3] it was over 10 µM. In series [7], this molecule showed a half-life of 11.2 h.
In [5], `Cl.O=C(O)CN1CCC2(CC1)COc1cc(S(=O)(=O)Cc3c(Cl)cccc3Cl)ccc12` gave a CL of 33 µL/min. Further, the solubility kinetic in series [6] is at least 100 µM. Moreover, the half-maximal effective concentration (EC50) was 0.794 µM in [1], over 31.6 µM in [2] and over 10 µM in series [3]. The t1/2 in [7] is 2.15 h.
In general, Kp refers to tissue or fluid exposure divided by exposure in the circulation. In the case of `Cl.O=C(O)CCN1CCC2(CC1)COc1cc(OCc3c(Cl)cccc3Cl)ccc12`, in series [9], the Kp came to 0.2. In series [5], this molecule showed a microsomal CLint of 3.1 µL/min/mg. Besides, in [6], the solubility kinetic is at least 100 µM. Besides, the EC50 in series [1] is 0.158 µM; in series [2] it was 6.31 µM; in series [3] it was over 10 µM. This molecule also returned a half-life in [7] of 7.45 h.
Molecule `Cl.O=C(O)CCN1CCC2(CC1)COc1cc(C#Cc3ccccc3)ccc12` returned an intrinsic clearance (microsomal CLint) in [5] of 8.3 µL/min/mg. The solubility kinetic in series [6] turned out to be 100 µM. Also, the half-maximal effective concentration (EC50) in series [1] was 0.0398 µM. In series [7], this molecule gave a half-life of 2.78 h.
With `O=C(O)CCN1CCC2(CC1)COc1cc(OCc3c(Cl)cccc3C(F)(F)F)ccc12`, the 50% effective concentration (EC50) is 0.126 µM in series [1], 0.316 µM in series [2] and over 10 µM in series [3].
As for `O=C(O)C(F)(F)F.O=C(O)CCN1CCC2(CC1)COc1cc(OCc3ccccc3Cl)ccc12`, the microsomal CLint in series [5] amounted to 9.1 µL/min/mg. In series [6], the solubility kinetic was in the range of 30 to 100 µM. Further, the concentration for a half-maximal effect (EC50) in series [1] is 0.126 µM; in series [3], over 31.6 µM. Moreover, the half-life in [7] is 2.55 h.
`CCc1cccc(Cl)c1COc1ccc2c(c1)OCC21CCN(CC(C)C(=O)O)CC1.Cl` (stereo unspecified): the Ratio EC50 in the series filed under Homo sapiens [4] was determined as 100. Moreover, the microsomal CLint in series [5] is 6.1 µL/min/mg. In series [6], the solubility kinetic is at least 100 µM. Besides, the EC50 is 0.0158 µM in series [1], 0.316 µM in series [2] and over 10 µM in [3]. The molecule also displayed a half-life in series [7] of 3.8 h.
For `CCc1cccc(Cl)c1CSc1ccc2c(c1)OCC21CCN(CCC(=O)O)CC1.Cl`, in the series listed under Homo sapiens [4], the Ratio EC50 is 100. Also, in [5], the microsomal CLint came out at 42 µL/min/mg. Also, in series [6], the solubility kinetic was in the range of 30 to 100 µM. The EC50 in [1] was 0.00251 µM; in [2], 0.126 µM; in series [3], over 1 µM. Besides, the half-life in series [7] turned out to be 0.55 h.
`O=C(O)CCN1CCC2(CC1)COc1cc(OCc3c(Cl)cccc3OC(F)(F)F)ccc12`: the results for the EC50 in [1] and in [2] were 0.02 µM and 3.98 µM, respectively.
For orientation: bioavailability means dose-corrected exposure relative to a reference, in per cent. Higher therefore signals much systemic uptake. In [10], `Cl.O=C(O)CCN1CCC2(CC1)COc1cc(/C=C/c3c(Cl)cccc3Cl)ccc12` displayed a bioavailability of 73%. Moreover, in series [9], the concentration ratio (Kp) was determined as 0.8. The intrinsic clearance (microsomal CLint) in [5] stood at 0.76 µL/min/mg. Besides, the solubility kinetic in series [6] is 30 to 100 µM. For the same molecule, the half-maximal effective concentration (EC50) in series [1] was 0.0126 µM; in series [2] it was over 31.6 µM. For the same molecule, the half-life in [7] came to 30.3 h.
For `Cl.O=C(O)CCN1CCCC2(COc3cc(OCc4c(Cl)cccc4Cl)ccc32)C1` (stereo unspecified), the Ratio EC50 in the series listed under Homo sapiens [4] worked out at 100. This molecule also gave a microsomal CLint in [5] of 3.1 µL/min/mg. Further, the solubility kinetic in series [6] is at least 100 µM. Also, the EC50 in [1] was 0.1 µM. Also, the half-life in series [7] turned out to be 7.57 h.
In the case of `CCCCCCCCc1ccc(CCC(N)(CO)CO)cc1` [FINGOLIMOD], the solubility kinetic in series [6] lay within 1 to 6.5 µM (≈ 0.307 to 2 µg/mL). Moreover, the concentration giving a half-maximal response (EC50) in [1] was 3.16 µM; in series [3], 2.51 µM.
As to `O=P(O)(O)OCCN1CCC2(CC1)COc1cc(OCc3c(Cl)cccc3Cl)ccc12`, in the series filed under Homo sapiens [4], the Ratio EC50 turned out to be 100. The EC50 in series [1] is 0.02 µM; in series [2], 0.251 µM; in series [3], over 10 µM.
In the case of `O=C(O)CCN1CCC2(CC1)COc1cc(OCc3ccccc3)ccc12`, the values for the EC50 in series [1], in [2] and in [3] were 1 µM, over 31.6 µM and over 10 µM, respectively.
As for `Cc1cc(Cl)c(COc2ccc3c(c2)OCC32CCN(CCC(=O)O)CC2)c(Cl)c1`, the 50% effective concentration (EC50) in series [1] was 0.00794 µM; in series [2], 0.316 µM.
For `O=C(O)CCCN1CCC2(CC1)COc1cc(OCc3c(Cl)cccc3Cl)ccc12`, the EC50 was 0.0158 µM in [1], 5.01 µM in series [2] and 1.26 µM in series [3].

These data come from ChEMBL document CHEMBL4184094, “Spiro-1-benzofuranpiperidinylalkanoic acids as a novel and selective sphingosine S1P5 receptor agonist chemotype” (Bioorg Med Chem Lett, 2018).
